Measured values as given in PubChem BioAssay AID330 (DTP/NCI, 2004).
Several values for one entry are separate records, joined by “and”; a condition that tells them apart may be missing. Equal values may be shown once. Toxic doses and inconclusive results are not listed.

Tested on: P388 leukemia ip, CD2F1 mice, survival T/C
Assay: NCI In Vivo Anticancer Drug Screen. Data for tumor model P388 Leukemia (intraperitoneal) in CD2F1 (CDF1) mice
Details: endpoint: median survival time, higher = longer survival
Procedure, shortened: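 Mice carrying the transplanted tumor received test compound or vehicle. Survival was recorded in each group, and the value is the treated-group measurement divided by that of the vehicle-treated control group.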

[1] = dose: 50.0 mg/kg/injection, schedule: Q01DX009 (ip), vehicle: Klucel (hydroxypropylcellulose) (HPC)
[2] = dose: 50.0 mg/kg/injection, schedule: Q01DX005 (ip), vehicle: saline with Tween-80
[3] = dose: 120.0 mg/kg/injection, schedule: Q01DX005 (ip), vehicle: saline with Tween-80
[4] = dose: 240.0 mg/kg/injection, schedule: Q01DX005 (ip), vehicle: saline with Tween-80
[5] = dose: 50.0 mg/kg/injection, schedule: Q01DX009 (ip), vehicle: saline with Tween-80
[6] = dose: 100.0 mg/kg/injection, schedule: Q01DX009 (ip), vehicle: saline with Tween-80
[7] = dose: 200.0 mg/kg/injection, schedule: Q01DX009 (ip), vehicle: saline with Tween-80
[8] = dose: 100.0 mg/kg/injection, schedule: Q01DX005 (ip), vehicle: saline with Tween-80
[9] = dose: 50.0 mg/kg/injection, schedule: Q01DX005 (ip), vehicle: Klucel (hydroxypropylcellulose) (HPC)
[10] = dose: 50.0 mg/kg/injection, schedule: Q01DX009 (ip), vehicle: saline
[11] = dose: 100.0 mg/kg/injection, schedule: Q01DX009 (ip), vehicle: saline
[12] = dose: 100.0 mg/kg/injection, schedule: Q04DX002 (ip), vehicle: saline with Tween-80
[13] = dose: 200.0 mg/kg/injection, schedule: Q04DX002 (ip), vehicle: saline with Tween-80
[14] = dose: 60.0 mg/kg/injection, schedule: Q01DX005 (ip), vehicle: saline with Tween-80
[15] = dose: 400.0 mg/kg/injection, schedule: Q01DX009 (ip), vehicle: saline with Tween-80

In the case of `Cc1n(-c2ccccc2)nn[n+]1C`, the T/C (dose: 12.5 mg/kg/injection, schedule: Q01DX009 (ip), vehicle: Klucel (hydroxypropylcellulose) (HPC)) is reported as 116 % of control and 92 % of control, the T/C (dose: 25.0 mg/kg/injection, schedule: Q01DX009 (ip), vehicle: Klucel (hydroxypropylcellulose) (HPC)) is reported as 101 % of control and the T/C [1] is reported as 103 % of control and 91 % of control.
In the case of `ClC(Cl)(Cl)C(c1cccs1)c1cccs1`, the T/C [1] is reported as 103 % of control, the T/C (dose: 100.0 mg/kg/injection, schedule: Q01DX009 (ip), vehicle: Klucel (hydroxypropylcellulose) (HPC)) is reported as 100 % of control and the T/C (dose: 200.0 mg/kg/injection, schedule: Q01DX009 (ip), vehicle: Klucel (hydroxypropylcellulose) (HPC)) is reported as 109 % of control. For the same compound, the T/C (dose: 400.0 mg/kg/injection, schedule: Q01DX009 (ip), vehicle: Klucel (hydroxypropylcellulose) (HPC)) was 104 % of control.
For `Cc1ccc(NC(=O)CC(=O)CC(C)C)cc1C`, the T/C [2] was 107 % of control, the T/C [3] was 113 % of control and the T/C [4] was 114 % of control.
With `CN(C)c1ccc(/C=C/c2ccc(Br)cc2)cc1` the T/C [5] was 89 % of control, the T/C [6] was 88 % of control and the T/C [7] was 89 % of control.
`O=c1[nH]c2ccccc2nc1N=Nc1ccccc1` was tested, and the T/C [2] was 96 % of control and the T/C [8] was 96 % of control.
`COC(=O)c1cccc2c(=O)c(CCl)c(-c3ccccc3)sc12` was tested, and the T/C (dose: 100.0 mg/kg/injection, schedule: Q01DX001 (ip), vehicle: saline with Tween-80) was 93 % of control, the T/C (dose: 200.0 mg/kg/injection, schedule: Q01DX001 (ip), vehicle: saline with Tween-80) was 91 % of control and the T/C (dose: 400.0 mg/kg/injection, schedule: Q01DX001 (ip), vehicle: saline with Tween-80) was 91 % of control.
`O=[N+]([O-])c1ccc(N2N=N[C@@H]3C4CCC(C4O)[C@@H]32)cc1` (stereo not given in full) was tested, and the T/C [5] was 88 % of control, the T/C [6] was 97 % of control and the T/C [7] was 89 % of control.
`CC(=O)OCC1OC(n2cnc3c(=S)nc(N)[nH]c32)CC1OC(C)=O` (stereo not given) was tested, and the T/C (dose: 1.25 mg/kg/injection, schedule: Q04DX003 (ip), vehicle: saline with Tween-80) was 102 % of control, the T/C (dose: 2.5 mg/kg/injection, schedule: Q04DX003 (ip), vehicle: saline with Tween-80) was 106 % of control and the T/C (dose: 5.0 mg/kg/injection, schedule: Q04DX003 (ip), vehicle: saline with Tween-80) was 113 % of control and 123 % of control. For the same compound, the T/C (dose: 20.0 mg/kg/injection, schedule: Q04DX003 (ip), vehicle: saline with Tween-80) was 156 % of control and 158 % of control and 159 % of control and the T/C (dose: 30.0 mg/kg/injection, schedule: Q04DX003 (ip), vehicle: saline with Tween-80) was 174 % of control.
`CS(=O)(=O)OCC(=O)NCCNC(=O)COS(C)(=O)=O` was tested, and the T/C (dose: 12.5 mg/kg/injection, schedule: Q04DX003 (ip), vehicle: saline with Tween-80) was 100 % of control, the T/C (dose: 25.0 mg/kg/injection, schedule: Q04DX003 (ip), vehicle: saline with Tween-80) was 108 % of control and the T/C (dose: 50.0 mg/kg/injection, schedule: Q04DX003 (ip), vehicle: saline with Tween-80) was 120 % of control.
For `COc1ccc2c(c1)C(c1cccc3ccccc13)OC2=O` (stereo not given), the T/C (dose: 6.25 mg/kg/injection, schedule: Q01DX005 (ip), vehicle: Klucel (hydroxypropylcellulose) (HPC)) was 103 % of control, the T/C (dose: 12.5 mg/kg/injection, schedule: Q01DX005 (ip), vehicle: Klucel (hydroxypropylcellulose) (HPC)) was 92 % of control and the T/C (dose: 25.0 mg/kg/injection, schedule: Q01DX005 (ip), vehicle: Klucel (hydroxypropylcellulose) (HPC)) was 87 % of control. The T/C [9] was 90 % of control.
For `CC(O)CN(CCN(CC(C)O)CC(C)O)CC(C)O.[Cl-].[Co+2]` (stereo not given), the T/C (dose: 12.5 mg/kg/injection, schedule: Q01DX009 (ip), vehicle: saline) was 108 % of control and 111 % of control, the T/C (dose: 25.0 mg/kg/injection, schedule: Q01DX009 (ip), vehicle: saline) was 107 % of control and 110 % of control and the T/C [10] was 111 % of control and 112 % of control and 119 % of control. The T/C [11] was 123 % of control and 92 % of control.
With `CCNC(=O)OCCN(CCOC(=O)NCC)CCc1ccccc1` the T/C (dose: 60.0 mg/kg/injection, schedule: Q01DX005 (ip), vehicle: saline) was 110 % of control, the T/C (dose: 120.0 mg/kg/injection, schedule: Q01DX005 (ip), vehicle: saline) was 117 % of control and the T/C (dose: 240.0 mg/kg/injection, schedule: Q01DX005 (ip), vehicle: saline) was 99 % of control.
For `O=C(O)[C@@H]1c2ccccc2-c2ccccc2[C@H]1C(=O)O`, the T/C [2] was 98 % of control, the T/C [8] was 95 % of control and the T/C (dose: 200.0 mg/kg/injection, schedule: Q01DX005 (ip), vehicle: saline with Tween-80) was 107 % of control.
With `Clc1ccc(C#Cc2ccc(Cl)cc2)cc1` the T/C (dose: 3.13 mg/kg/injection, schedule: Q01DX009 (ip), vehicle: saline with Tween-80) was 109 % of control and the T/C (dose: 6.25 mg/kg/injection, schedule: Q01DX009 (ip), vehicle: saline with Tween-80) was 113 % of control.
In the case of `CC1=CC(=O)C=CC1=Nc1ccc(N(CCCl)CCCl)cc1`, the T/C (dose: 50.0 mg/kg/injection, schedule: Q04DX003 (ip), vehicle: Klucel (hydroxypropylcellulose) (HPC)) is reported as 103 % of control and the T/C (dose: 100.0 mg/kg/injection, schedule: Q04DX003 (ip), vehicle: Klucel (hydroxypropylcellulose) (HPC)) is reported as 102 % of control.
For `O=C(NC(Cc1ccc(Br)cc1)C(=O)O)c1ccc(I)cc1` (stereo not given), the T/C [9] was 98 % of control, the T/C (dose: 100.0 mg/kg/injection, schedule: Q01DX005 (ip), vehicle: Klucel (hydroxypropylcellulose) (HPC)) was 98 % of control and the T/C (dose: 200.0 mg/kg/injection, schedule: Q01DX005 (ip), vehicle: Klucel (hydroxypropylcellulose) (HPC)) was 107 % of control.
`COC(=O)Nc1nc2ccc(C(=O)OCC(C)C)cc2[nH]1` was tested, and the T/C [12] was 98 % of control and the T/C [13] was 90 % of control.
With `COc1ccc2cc3n(c(=O)c2c1O)CCc1cc2c(cc1-3)OCO2` the T/C (dose: 0.63 mg/kg/injection, schedule: Q01DX009 (ip), vehicle: distilled water + Tween-80) was 101 % of control, the T/C (dose: 1.25 mg/kg/injection, schedule: Q01DX009 (ip), vehicle: distilled water + Tween-80) was 101 % of control and the T/C (dose: 2.5 mg/kg/injection, schedule: Q01DX009 (ip), vehicle: distilled water + Tween-80) was 93 % of control. The T/C (dose: 5.0 mg/kg/injection, schedule: Q01DX009 (ip), vehicle: distilled water + Tween-80) was 108 % of control, the T/C (dose: 10.0 mg/kg/injection, schedule: Q01DX009 (ip), vehicle: distilled water + Tween-80) was 101 % of control and the T/C (dose: 20.0 mg/kg/injection, schedule: Q01DX009 (ip), vehicle: distilled water + Tween-80) was 92 % of control.
In the case of `CSc1nc(C#N)c(N)s1`, the T/C [14] is reported as 101 % of control, the T/C [3] is reported as 95 % of control and the T/C [4] is reported as 95 % of control.
In the case of `CCC(/C=C/c1ccccc1)=N\Nc1ccc(Cl)cc1`, the T/C [14] is reported as 104 % of control, the T/C [3] is reported as 101 % of control and the T/C [4] is reported as 98 % of control.
With `Cc1cc(OCc2nnc3n2S(=O)(=O)c2ccccc2N3C)ccc1Cl` the T/C [14] was 87 % of control and the T/C [3] was 90 % of control.
`CC1SC(C)(C)N(C=O)C1C(=O)O` (stereo not given) was tested, and the T/C [5] was 99 % of control and 100 % of control, the T/C [6] was 101 % of control and 91 % of control and the T/C [7] was 106 % of control and 94 % of control.
With `O=C1OC(c2ccccc2)c2cccnc21` (stereo not given) the T/C [12] was 101 % of control, the T/C [13] was 92 % of control and the T/C (dose: 400.0 mg/kg/injection, schedule: Q04DX002 (ip), vehicle: saline with Tween-80) was 98 % of control.
`CC1(C)OCC(C2OC3OC(C)(C)OC3C2(O)/C(N)=N/O)O1` (stereo not given) was tested, and the T/C (dose: 100.0 mg/kg/injection, schedule: Q04DX002 (ip), vehicle: saline) was 103 % of control, the T/C (dose: 200.0 mg/kg/injection, schedule: Q04DX002 (ip), vehicle: saline) was 112 % of control and the T/C (dose: 400.0 mg/kg/injection, schedule: Q04DX002 (ip), vehicle: saline) was 122 % of control.
`O=C(O)C(F)(F)F` was tested, and the T/C [6] was 90 % of control, the T/C [7] was 95 % of control and the T/C [15] was 90 % of control.
With `COc1ccc2c(c1)c(C(=O)O)cc(=O)n2C` the T/C [6] was 95 % of control, the T/C [7] was 90 % of control and the T/C [15] was 90 % of control.
For `O[P+]1(c2ccccc2)OC(C(F)(F)F)(C(F)(F)F)C(C(F)(F)F)(C(F)(F)F)O1`, the T/C [10] was 108 % of control, the T/C [11] was 99 % of control and the T/C (dose: 200.0 mg/kg/injection, schedule: Q01DX009 (ip), vehicle: saline) was 107 % of control.
With `O=[N+]([O-])/C=C\c1cc2c3c(c1)CCCN3CCC2` the T/C (dose: 12.5 mg/kg/injection, schedule: Q01DX009 (ip), vehicle: saline with Tween-80) was 100 % of control, the T/C (dose: 25.0 mg/kg/injection, schedule: Q01DX009 (ip), vehicle: saline with Tween-80) was 109 % of control and the T/C [5] was 109 % of control.
In the case of `c1c2c(cc3c1OCO3)Cc1cc3c(cc1Cc1cc4c(cc1C2)OCO4)OCO3`, the T/C [5] is reported as 108 % of control, the T/C [6] is reported as 108 % of control and the T/C [7] is reported as 100 % of control.
